This is an account of results in patent publication US8366935B2, “Phyllanthus extract” (Phytrix Inc., priority 2008, dated 2013).

This experiment concerns the target T1, gp120 (Human immunodeficiency virus type 1 group M subtype B, UniProt P03375).
T1 construct: loaded with 25 μl of 6 mg/ml of gp120 (25 μM) in PBS pH 7.2
The experiment is described as follows: biochemical. The format is binding, HIV. The protocol:
If needed, experiments were repeated within a smaller concentration range (i.e., 10 trials from 0.01 to 0.10 mmol). A total volume of either 50 μl was used in each analysis. Analytes were loaded in the opposite side of the membrane and equilibrium was obtained after incubation of 12 hrs at 23° C. The association constants were determined by non-linear regression analysis. Concentrations of compounds analysed were determined by HPLC analysis by comparison against an internal control (diethyl-7-dimethylaminocoumarineacetamide). HPLC controls were run with an equimolar amount of control and analyte. The relative concentrations of each analyte were determined at both sides of the membrane. […] Each data point was recollected after regeneration of the dialysis setup by exposing the non-protein containing face of the membrane to 5 ml of PBS pH 7.2 twice for 4 to 10 hrs at 23° C.
In turn, `Cc1c(O)c(O)cc2c1C(/C(=C/C(=O)O)C(=O)OC1C3COC(=O)c4cc(O)c(O)c(O)c4-c4c(cc(O)c(O)c4O)C(=O)OC1C(O)C(OC(=O)c1cc(O)c(O)c(O)c1)O3)C(C(=O)O)OC2=O` (stereo not shown) [Repandusinic acid] returned a Kd of 22 nM.

Compound `O=C(O)c1cc(O)c(O)c(O)c1` [Gallic acid] displayed a Kd of no less than 100000 nM.

`O=C(O[C@@H]1O[C@@H]2COC(=O)c3cc(O)c(O)c(O)c3-c3c(cc(O)c(O)c3O)C(=O)O[C@H]([C@H]1O)[C@@H]2O)c1cc(O)c(O)c(O)c1` [Corilagin] returned a Kd of 120 nM.

With `O=C1O[C@H]2[C@@H]3OC(=O)c4cc(O)c(O)c(O)c4-c4c(cc(O)c(O)c4O)C(=O)OC[C@H]2O[C@@H](OC(=O)c2cc(O)c(O)c(O)c2)[C@@H]3OC(=O)c2cc(O)c(O)c3c2[C@@H]2C1=CC(=O)[C@](O)(O3)C2(O)O` [Geraniin], binding was put at a Kd of 76 nM.
